We go through 36 compounds from ChEMBL document CHEMBL5046241, “The novel therapeutic strategy of vilazodone-donepezil chimeras as potent triple-target ligands for the potential treatment of Alzheimer's disease with comorbid depression” (Eur J Med Chem, 2022).

pEC50, pIC50: −log10 of the molar value.

In experiment [1] the target is Sodium-dependent serotonin transporter (Homo sapiens, UniProt P31645). It counts as cell-based, HEK293.
Experiment [2] addresses Cholinesterase (Mus musculus, UniProt Q03311).
Description: Inhibition of BuChE in mouse serum using butyrylthiocholine iodide as substrate incubated for 20 mins by Ellman's method
In experiment [3] the target is T1, Acetylcholinesterase (Mus musculus, UniProt P21836).
T1 sequence (P21836 whole entry): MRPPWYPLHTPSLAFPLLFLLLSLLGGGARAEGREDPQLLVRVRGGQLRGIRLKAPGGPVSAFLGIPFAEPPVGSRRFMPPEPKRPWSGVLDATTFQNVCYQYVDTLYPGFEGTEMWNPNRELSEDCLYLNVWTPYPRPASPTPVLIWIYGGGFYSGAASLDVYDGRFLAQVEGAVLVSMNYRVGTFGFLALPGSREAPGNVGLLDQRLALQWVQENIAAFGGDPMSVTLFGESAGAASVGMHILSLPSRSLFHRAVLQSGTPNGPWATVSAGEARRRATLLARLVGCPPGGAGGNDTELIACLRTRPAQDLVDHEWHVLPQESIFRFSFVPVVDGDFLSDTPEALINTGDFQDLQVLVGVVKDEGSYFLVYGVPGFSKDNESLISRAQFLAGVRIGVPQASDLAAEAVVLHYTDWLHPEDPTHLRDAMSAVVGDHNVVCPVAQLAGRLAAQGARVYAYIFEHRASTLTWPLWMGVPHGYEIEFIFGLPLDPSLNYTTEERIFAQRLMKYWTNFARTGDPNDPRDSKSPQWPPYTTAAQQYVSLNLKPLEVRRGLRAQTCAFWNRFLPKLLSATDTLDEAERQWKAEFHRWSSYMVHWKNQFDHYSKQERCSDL
Nature of the experiment: biochemical.
Description: Inhibition of AChE in mouse cortical homogenate using acetylthiocholine iodide as substrate incubated for 20 mins by Ellman's method

Experiment [4] has as its target T2, 5-hydroxytryptamine receptor 1A (Homo sapiens, UniProt P08908).
T2 sequence (P08908 whole entry): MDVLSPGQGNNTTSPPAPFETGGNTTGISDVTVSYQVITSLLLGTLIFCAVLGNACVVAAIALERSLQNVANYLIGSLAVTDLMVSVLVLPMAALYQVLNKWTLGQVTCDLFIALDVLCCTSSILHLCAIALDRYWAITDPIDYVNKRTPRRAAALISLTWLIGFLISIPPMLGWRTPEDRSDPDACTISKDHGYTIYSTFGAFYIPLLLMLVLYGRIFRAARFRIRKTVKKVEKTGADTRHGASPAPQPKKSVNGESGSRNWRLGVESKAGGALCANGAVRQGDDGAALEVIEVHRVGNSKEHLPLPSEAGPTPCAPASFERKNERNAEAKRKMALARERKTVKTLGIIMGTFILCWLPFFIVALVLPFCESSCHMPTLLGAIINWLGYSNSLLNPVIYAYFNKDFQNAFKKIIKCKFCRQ
Description: Agonist activity at human 5-HT1A receptor expressed in HEK293 cells incubated for 60 mins by Eu-cAMP tracer based LANCE ultra cAMP assay

As usually defined, the pIC50 is the IC50 on a negative log10 scale, so that one unit is a factor of ten. Higher therefore signals a low IC50. Broadly, the pEC50 is the EC50 on a negative log10 scale, so that one unit is a factor of ten. A higher pEC50 goes with a low EC50.

Sodium-dependent serotonin transporter, sequence (P31645 whole entry): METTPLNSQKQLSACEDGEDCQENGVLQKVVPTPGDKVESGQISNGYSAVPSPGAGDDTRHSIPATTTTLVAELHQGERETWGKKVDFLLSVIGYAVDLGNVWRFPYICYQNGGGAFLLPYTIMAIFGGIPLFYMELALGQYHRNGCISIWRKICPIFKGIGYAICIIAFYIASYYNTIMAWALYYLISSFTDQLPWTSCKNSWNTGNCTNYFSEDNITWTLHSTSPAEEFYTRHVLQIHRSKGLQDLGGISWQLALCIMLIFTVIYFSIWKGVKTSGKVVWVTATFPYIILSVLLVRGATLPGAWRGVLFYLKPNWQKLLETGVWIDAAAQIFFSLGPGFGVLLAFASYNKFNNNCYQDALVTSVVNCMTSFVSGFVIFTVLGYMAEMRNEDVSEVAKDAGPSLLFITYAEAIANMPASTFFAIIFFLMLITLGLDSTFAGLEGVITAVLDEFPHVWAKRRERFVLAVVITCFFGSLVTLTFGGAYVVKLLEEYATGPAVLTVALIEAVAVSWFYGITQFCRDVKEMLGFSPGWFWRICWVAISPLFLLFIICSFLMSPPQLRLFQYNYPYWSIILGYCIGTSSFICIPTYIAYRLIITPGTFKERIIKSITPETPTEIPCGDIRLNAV
Cholinesterase, sequence (Q03311 whole entry): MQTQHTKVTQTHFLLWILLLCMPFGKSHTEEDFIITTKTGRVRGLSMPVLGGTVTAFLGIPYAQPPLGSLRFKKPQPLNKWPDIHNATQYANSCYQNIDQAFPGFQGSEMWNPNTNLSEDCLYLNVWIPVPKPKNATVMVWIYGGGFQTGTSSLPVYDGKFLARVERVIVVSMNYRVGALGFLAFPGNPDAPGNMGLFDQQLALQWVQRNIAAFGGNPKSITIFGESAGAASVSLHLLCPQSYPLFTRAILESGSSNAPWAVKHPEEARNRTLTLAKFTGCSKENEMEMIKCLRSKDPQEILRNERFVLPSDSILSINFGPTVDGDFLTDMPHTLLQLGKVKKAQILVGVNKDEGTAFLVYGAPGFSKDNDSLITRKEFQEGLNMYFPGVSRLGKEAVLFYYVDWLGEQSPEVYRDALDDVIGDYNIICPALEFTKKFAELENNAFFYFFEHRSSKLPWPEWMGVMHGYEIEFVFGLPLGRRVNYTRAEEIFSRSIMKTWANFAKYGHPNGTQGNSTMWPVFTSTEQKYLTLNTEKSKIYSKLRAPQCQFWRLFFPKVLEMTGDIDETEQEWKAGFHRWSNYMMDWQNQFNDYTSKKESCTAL

Consider `N#Cc1ccc2[nH]cc(CCCCN3CCN(c4ccc5c(c4)CC(CC4CCN(Cc6ccccc6)CC4)C5=O)CC3)c2c1` (configuration not stated), for which the pIC50 in experiment [1] is 7.44; in experiment [2], 5.78; in experiment [3], 8.23.
In the case of `N#Cc1ccc2[nH]cc(CCCCN3CCN(c4cccc(C(=O)CCC5CCN(Cc6ccccc6)CC5)c4)CC3)c2c1`, the pIC50 in experiment [2] was 6.00; in experiment [3], 7.42.
The corresponding values for `N#Cc1ccc2[nH]cc(CCCCN3CCN(c4ccc5c(c4)C(=O)C(CC4CCN(Cc6ccccc6)CC4)C5)CC3)c2c1` (configuration not stated) are 6.49 and 7.43.
For the compound `N#Cc1ccc2[nH]cc(CCN3CCN(c4ccc(C(=O)CCC5CCN(Cc6ccccc6)CC5)cc4)CC3)c2c1`, the pIC50 in experiment [1] was 7.49; in experiment [2], 5.52; in experiment [3], 8.30.
For the compound `N#Cc1ccc2[nH]cc(CCCCN3CCN(c4ccc(C(=O)CCC5CCN(CC6CCCCC6)CC5)cc4)CC3)c2c1`, the pIC50 was 5.55 in experiment [2] and 7.12 in experiment [3].
Regarding `N#Cc1ccc2[nH]cc(CCCCN3CCN(c4ccc(C(=O)CCC5CCN(Cc6cccc(Cl)c6)CC5)cc4)CC3)c2c1`, the pIC50 in experiment [2] is 4.82; in experiment [3], 7.57. The compound further showed a pEC50 in experiment [4] of 6.69.
In the case of `O=C(CCC1CCN(Cc2ccccc2)CC1)c1ccc(N2CCN(CCCCc3c[nH]c4ccccc34)CC2)cc1`, the pIC50 in experiment [1] is 6.55; in experiment [2] it was 6.01; in experiment [3], 8.82.
Consider `N#Cc1ccc2[nH]cc(CCCCN3CCN(c4cccc5c4C(=O)C(CC4CCN(Cc6ccccc6)CC4)C5)CC3)c2c1` (configuration not stated), for which the pIC50 was 6.74 in experiment [2] and 6.15 in experiment [3]. The pEC50 in experiment [4] was 7.44.
Take `N#Cc1ccc2[nH]cc(CCCCN3CCN(c4ccc(C(=O)CCC5CCN(CC6CCC6)CC5)cc4)CC3)c2c1`: the values for the pIC50 in experiment [2] and in experiment [3] were 5.88 and 6.60, respectively.
The corresponding values for `N#Cc1ccc2[nH]cc(CCN3CCN(c4ccc(C(=O)CCC5CCN(Cc6ccoc6)CC5)cc4)CC3)c2c1` are 5.55 and 7.91.
On to `Cc1cccc(CN2CCC(CCC(=O)c3ccc(N4CCN(CCCCc5c[nH]c6ccc(C#N)cc56)CC4)cc3)CC2)c1`, for which the negative-log IC50 (pIC50) in experiment [2] was 4.87; in experiment [3], 7.74.
Turning to `CCN1CCC(CCC(=O)c2ccc(N3CCN(CCCCc4c[nH]c5ccc(C#N)cc45)CC3)cc2)CC1`, the figures for the negative-log IC50 (pIC50) in experiment [2] and in experiment [3] were 5.62 and 6.41, respectively. In addition, the negative logarithm of the EC50 (pEC50) in experiment [4] was 8.05.
Regarding `COc1ccc2[nH]cc(CCCCN3CCN(c4ccc(C(=O)CCC5CCN(Cc6ccccc6)CC5)cc4)CC3)c2c1`, the results for the pIC50 in experiment [1], in experiment [2] and in experiment [3] were 7.12, 6.16 and 8.62, respectively.
In turn, `N#Cc1ccc2[nH]cc(CCCCN3CCN(c4ccc(C(=O)CCC5CCN(Cc6cccc(Br)c6)CC5)cc4)CC3)c2c1` gave a pIC50 in experiment [3] of 7.04.
Regarding `N#Cc1ccc2[nH]cc(CCCCN3CCN(c4ccc(C(=O)CCC5CCN(Cc6ccc7ccccc7c6)CC5)cc4)CC3)c2c1`, the pEC50 in experiment [4] was less than 6.00.
For the compound `C#CCN1CCC(CCC(=O)c2ccc(N3CCN(CCCCc4c[nH]c5ccc(C#N)cc45)CC3)cc2)CC1`, the pEC50 in experiment [4] is 7.54. In experiment [3], the pIC50 was 5.94.
For `O=C(CCC1CCN(Cc2ccccc2)CC1)c1ccc(N2CCN(CCCCc3c[nH]c4ccc(Br)cc34)CC2)cc1`, the pIC50 in experiment [2] was 5.42; in experiment [3], 8.11.
On to `N#Cc1ccc2[nH]cc(CCCN3CCN(c4ccc(C(=O)CCC5CCN(Cc6cccnc6)CC5)cc4)CC3)c2c1`, for which the pIC50 in experiment [2] is 5.70; in experiment [3], 8.19.
With `N#Cc1ccc2[nH]cc(CCCN3CCN(c4ccc(C(=O)CCC5CCN(Cc6ccsc6)CC5)cc4)CC3)c2c1`, the pIC50 is 7.39 in experiment [1], 5.92 in experiment [2] and 8.73 in experiment [3].
Compound `N#Cc1ccc2[nH]cc(CCCCN3CCN(c4ccc(C(=O)CCC5CCN(Cc6cccc(C(F)(F)F)c6)CC5)cc4)CC3)c2c1` had a negative logarithm of the EC50 (pEC50) in experiment [4] of 6.49. This compound had a pIC50 in experiment [3] of 6.53.
Regarding `COC(=O)c1ccc2[nH]cc(CCCCN3CCN(c4ccc(C(=O)CCC5CCN(Cc6ccccc6)CC5)cc4)CC3)c2c1`, the results for the negative-log IC50 (pIC50) in experiment [1], in experiment [2] and in experiment [3] were less than 6.00, 6.47 and 8.48, respectively.
`CCCCN1CCC(CCC(=O)c2ccc(N3CCN(CCCCc4c[nH]c5ccc(C#N)cc45)CC3)cc2)CC1`: the values for the pIC50 in experiment [2] and in experiment [3] were 5.72 and 6.91, respectively.
Consider `C=CCN1CCC(CCC(=O)c2ccc(N3CCN(CCCCc4c[nH]c5ccc(C#N)cc45)CC3)cc2)CC1`, for which the results for the pIC50 in experiment [2] and in experiment [3] were 5.78 and 6.57, respectively. This compound also had a negative-log EC50 (pEC50) in experiment [4] of 8.07.
Regarding `N#Cc1ccc2[nH]cc(CCCCN3CCN(c4ccccc4C(=O)CCC4CCN(Cc5ccccc5)CC4)CC3)c2c1`, the values for the pIC50 in experiment [2] and in experiment [3] were 6.45 and 5.60, respectively.
Regarding `O=C(CCC1CCN(Cc2ccccc2)CC1)c1ccc(N2CCN(CCCCc3c[nH]c4ccc(F)cc34)CC2)cc1`, the negative-log IC50 (pIC50) in experiment [1] was 6.94; in experiment [2], 5.83; in experiment [3] it was 8.61.
`COc1cccc(CN2CCC(CCC(=O)c3ccc(N4CCN(CCCCc5c[nH]c6ccc(C#N)cc56)CC4)cc3)CC2)c1` showed a pIC50 in experiment [3] of 6.19.
Regarding `N#Cc1ccc2[nH]cc(CCCCN3CCN(c4ccc(C(=O)CCC5CCN(CC6CCCC6)CC5)cc4)CC3)c2c1`, the pIC50 is 5.75 in experiment [2] and 7.39 in experiment [3]. Besides, the pEC50 in experiment [4] was 7.30.
The corresponding values for `N#Cc1ccc2[nH]cc(CCCCN3CCN(c4ccc(C(=O)CCC5CCN(Cc6ccc(F)cc6)CC5)cc4)CC3)c2c1` are 5.57, 7.49 and 6.79.
For `N#Cc1ccc2[nH]cc(CCCCN3CCN(c4ccc(C(=O)CCC5CCN(CC6CC6)CC5)cc4)CC3)c2c1`, in that order: 6.13, 6.44 and 8.04.
In the case of `O=C(CCC1CCN(Cc2ccccc2)CC1)c1ccc(N2CCN(CCCCc3c[nH]c4ccc(Cl)cc34)CC2)cc1`, the pIC50 was 6.80 in experiment [1], 5.56 in experiment [2] and 8.45 in experiment [3].
For the compound `N#Cc1ccc2[nH]cc(CCCCN3CCN(c4ccc5c(c4)C/C(=C\C4CCN(Cc6ccccc6)CC4)C5=O)CC3)c2c1`, the pIC50 was 5.31 in experiment [2] and 7.51 in experiment [3].
As to `N#Cc1ccc2[nH]cc(CCCCN3CCN(c4ccc(C(=O)CCC5CCN(Cc6cccc(F)c6)CC5)cc4)CC3)c2c1`, the pIC50 in experiment [2] is 4.95; in experiment [3] it was 7.96.
For `N#Cc1ccc2[nH]cc(CCCCN3CCN(c4ccc(C(=O)CCC5CCN(Cc6ccccc6F)CC5)cc4)CC3)c2c1`, in that order: 5.60 and 7.92.
Regarding `O=C(CCC1CCN(Cc2ccccc2)CC1)c1ccc(N2CCN(CCCCc3c[nH]c4cc(Cl)c(Cl)cc34)CC2)cc1`, the pIC50 in experiment [2] is 5.24; in experiment [3], 7.95. In experiment [4], this compound showed a pEC50 of less than 6.00.
The corresponding values for `N#Cc1ccc2c(CCCCN3CCN(c4ccc(C(=O)CCC5CCN(Cc6ccccc6)CC5)cc4)CC3)c[nH]c2c1` are 5.58, 8.43 and less than 6.00.
In the case of `N#Cc1ccc2[nH]cc(CCCN3CCN(c4ccc(C(=O)CCC5CCN(Cc6cc[nH]c6)CC5)cc4)CC3)c2c1`, the negative logarithm of the IC50 (pIC50) in experiment [1] is 7.83; in experiment [2], 5.95; in experiment [3], 8.49.
